According to patent publication US20260242365A1, “USES OF CERTAIN 1,4-OXAZEPANE-2-CARBOXAMIDES AS DPP1 INHIBITORS” (Insmed Incorporated, priority 2023, published 2026):

Assays:
mouse DPP1 = target: T1, mouse DPP1 (Mus musculus, UniProt P97821); assay: Mouse DPP1 Enzyme IC50 Assay; assay type: biochemical; conditions: active mouse DPP1 enzyme, H-Gly-Arg-AMC substrate
T1 construct: Test articles were applied to active mouse DPP1 enzyme; purchased R&D Systems
Protocol: Test articles were applied to active mouse DPP1 enzyme (R&D Systems; Minneapolis, MN) in Assay Buffer (50 mM MES pH 5.5, 50 mM NaCl, 5 mM DTT) in a total reaction volume of 125 μL. 25 μL of compound in Assay Buffer plus 5% DMSO was first added to 50 μL of active mouse DPP1 enzyme at a concentration of […] and allowed to pre-incubate for 10 minutes at 37° C. after which 50 μL of 1000 μM H-Gly-Arg-AMC substrate (Bachem; St. Torrance, CA) was added, giving final substrate concentration of 400 μM and a final DMSO concentration of 1%. Substrate cleavage was measured for 90 minutes at 37° C., with fluorescence at Excitation/Emission 350/450 nm measured every 5 minutes. DPP1 concentration was interpolated based on its activity relative to a standard curve of recombinant active mouse DPP1 enzyme. IC50 values for each compound were calculated via the XLFit (IDBS Version 5.3.1.3) Add-On to Microsoft Excel using the four parameter fit equation y= (A+ ((B−A)/(1+ ((C/x)^D)))), which appears as equation number 205 (4 Parameter Logistic Model or Sigmoidal Dose-Response Model) in XLFit. Default constraints were used for each Parameter. IC50 was defined as the compound concentration at which 50% of enzyme activity was inhibited when compared to the no-compound control.

Neutrophil elastase (NE) = assay: Neutrophil elastase activity in lysates of mouse bone marrow progenitor cells differentiated into neutrophils under DPP1 inhibitor; assay type: cell-based
Protocol: (§1) Male or female C57BL/6 mice at the age of 8-14 weeks were used.
(§2) The two femurs and two tibias were removed out of a single mouse and gauze was used to remove the muscles and residue tissues. A sterile environment for surgical instruments and surgical sites is maintained. The bones were put into one 15-mL tube with cold sterile RPMI medium and placed on ice until further processing is performed.
(§3) A fresh 50-mL tube is placed on ice and a fresh 40/70 μm cell strainer (CLS431750, Sigma) is inserted into the top of the Falcon tube. Both ends of two femurs and two tibias are cut with bone cutters and flush bone marrow of all bones from one single mouse are placed into the cell strainer. 5-mL of ice-cold RPMI (RPMI medium containing 10 mM HEPES, pH 7.4) was used for each femur or tibia using a blunt needle (25 G needle), totaling about 20 mL per tube.
(§4) The cell suspension is centrifuged at 600×g for 5 min at 4° C. and the supernatant is carefully discarded.
(§5) The cell pellet is resuspended in 400 μL of ice-cold MACS buffer (PH7.2 PBS plus 0.5% BSA and 2 mM EDTA) for one adult mouse (optimized for 4 bones/mouse).
(§6) 100 μL Direct Lineage Cell Depletion Cocktail (which is enough for 100 million cells depletion) is added. The components are mixed well and incubated for 10 min. at 2° C.-8° C.
(§7) Magnetic separation LS Column (MACS, Miltenyi, 130 042 401) is prepared by placing it in the magnetic field of MACS Separator and rinsing with 3 mL of ice-cold MACS buffer.
(§8) Cell suspension is applied onto the column. Flow-through containing unlabeled cells, representing the enriched lineage negative cells, is collected.
(§9) Column is washed with 3×3 mL of ice-cold MACS buffer. Unlabeled cells that pass through are collected, representing the enriched lineage negative cells, and combined with the flow-through from prior step.
(§10) The cell suspension is centrifuged at 600×g for 5 min at 4° C., and the supernatant is carefully discarded. The pellet is washed once with 10 mL ice cold IMDM medium (IMDM GlutaMax (Gibco, 31980030) plus 10% FCS and 1% PS).
(§11) The cell pellet is resuspended with 2 mL ice-cold complete IMDM medium and the cells are counted. The cells are then ready for neutrophil differentiation.
(§12) The resulting undifferentiated bone marrow cells are in complete IMDM medium (IMDM with 10% FBS and 1% antibiotics); and the concentration of cells is adjusted to 1×10^5 cells/mL, supplemented with 50 ng/ml of SCF (BioLegend, 579704) and 50 ng/ml of IL 3 (BioLegend, 575504). The cells are subgrouped and the respective DPP1 inhibitors are added accordingly. Cells are then cultivated in a flask at 37° C. for 3 days.
(§13) Cells are checked each day for expansion and maintaining a final concentration between 2-10×10^5 cells/ml. On day 3, cells are counted. 3-4 million cells for each group are harvested and lystates prepared for NSPs activity detection. The left cells are resuspended at 2× 10^5 cells/mL in fresh medium supplemented with 50 ng/ml of SCF, 50 ng/ml of IL 3 and 50 ng/ml of G-CSF (BioLegend, 574604). The DPP1 inhibitors are refreshed in the medium. Cells are then cultivated in a flask at 37° C. for another 2 days.
(§14) On day 5, cells are counted. 3-4 million cells/condition are harvested and the cells are lysed to prepare samples for NSPs activity detection. The remaining cells are collected by centrifugation at 600×g for 5 min. The left cells are washed once in 1×PBS. After the wash, the pelleted cells are resuspended in complete IMDM medium at 4-6×10^5 cells/mL supplemented with 50 ng/ml of G-CSF only. The DPP1 inhibitors in the medium are refreshed. Cells incubate for additional 2 days, for a total of 7 days from day of harvest. On day 7, cells are counted. 3-4 million cells/condition are harvested and the cell lysed to prepare samples for NSPs activity detection.
(§15) 3-4 million cells are collected into Eppendorf tubes. Samples are spun down at 600×g, 4° C. for 5 min. The supernatant is removed and resuspended in 1 mL PBS. […]

proteinase 3 (PR3) = assay: PR3 activity in lysates of mouse bone marrow progenitor cells differentiated into neutrophils under DPP1 inhibitor; assay type: cell-based
Protocol: as §1, §2, §3, §4, §5, §6, §7, §8, §9, §10, §11, §12, §13, §14, §15

cathepsin G (CatG) = assay: CatG activity in lysates of mouse bone marrow progenitor cells differentiated into neutrophils under DPP1 inhibitor; assay type: cell-based; conditions: for max inhibition of CatG activity observed: regardless of day
Protocol: as §1, §2, §3, §4, §5, §6, §7, §8, §9, §10, §11, §12, §13, §14, §15

T1 sequence (P97821 25-134 limits assumed): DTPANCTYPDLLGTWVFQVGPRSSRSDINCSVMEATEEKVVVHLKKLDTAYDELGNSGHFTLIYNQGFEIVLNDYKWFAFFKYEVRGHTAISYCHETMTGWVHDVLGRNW
T1 sequence (P97821 231-393 limits assumed): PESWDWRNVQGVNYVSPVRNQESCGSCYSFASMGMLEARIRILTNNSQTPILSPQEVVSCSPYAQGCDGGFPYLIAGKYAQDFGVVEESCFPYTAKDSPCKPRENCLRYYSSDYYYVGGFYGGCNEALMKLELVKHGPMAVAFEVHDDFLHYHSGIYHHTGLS
T1 sequence (P97821 394-462 limits assumed): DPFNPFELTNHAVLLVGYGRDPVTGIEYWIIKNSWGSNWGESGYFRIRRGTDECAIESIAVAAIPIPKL

Structure (SMILES) | IC50 (mouse DPP1) | Neutrophil Elastase Activity (% reduction from control) (Neutrophil elastase (NE); 0.02 μM, Day 3) | Neutrophil Elastase Activity (% reduction from control) (Neutrophil elastase (NE); 0.02 μM, Day 5) | Neutrophil Elastase Activity (% reduction from control) (Neutrophil elastase (NE); 0.02 μM, Day 7) | Neutrophil Elastase Activity (% reduction from control) (Neutrophil elastase (NE); 0.1 μM, Day 3) | Neutrophil Elastase Activity (% reduction from control) (Neutrophil elastase (NE); 0.1 μM, Day 5) | Neutrophil Elastase Activity (% reduction from control) (Neutrophil elastase (NE); 0.1 μM, Day 7) | PR3 Activity (% reduction from control) (proteinase 3 (PR3); 0.02 μM, Day 3) | PR3 Activity (% reduction from control) (proteinase 3 (PR3); 0.02 μM, Day 5) | PR3 Activity (% reduction from control) (proteinase 3 (PR3); 0.02 μM, Day 7) | PR3 Activity (% reduction from control) (proteinase 3 (PR3); 0.1 μM, Day 3) | PR3 Activity (% reduction from control) (proteinase 3 (PR3); 0.1 μM, Day 5) | PR3 Activity (% reduction from control) (proteinase 3 (PR3); 0.1 μM, Day 7) | CatG Activity (% reduction from control) (cathepsin G (CatG); 0.02 μM, Day 3) | CatG Activity (% reduction from control) (cathepsin G (CatG); 0.02 μM, Day 5) | CatG Activity (% reduction from control) (cathepsin G (CatG); 0.02 μM, Day 7) | CatG Activity (% reduction from control) (cathepsin G (CatG); 0.1 μM, Day 3) | CatG Activity (% reduction from control) (cathepsin G (CatG); 0.1 μM, Day 5) | CatG Activity (% reduction from control) (cathepsin G (CatG); 0.1 μM, Day 7) | maximum inhibition of NE activity observed (Neutrophil elastase (NE); regardless of day) | further results
Cn1c(=O)oc2ccc(-c3ccc(C[C@@H](C#N)NC(=O)[C@@H]4CNC[C@H](O)CO4)cc3)cc21 (single isomer, unassigned) [INSM-201, (2S,6S*)—N-[(1S)-1-cyano-2-[4-(3-methyl-2-oxo-2,3-dihydro-1,3-benzoxazol-5-yl)phenyl]ethyl]-6-hydroxy-1,4-oxazepane-2-carboxamide] | 2.3 ± 0.4 nM | 67% | 42% | 78% | 83% | 83% | 84% | 45% | 36% | 72% | 79% | 96% | 96% | 46% | 27% | 78% | 90% | 94% | 98% | – | reduction in NE activity (Neutrophil elastase (NE)): concentration-dependent reduction in NE activity; maximum inhibition of NE activity observed (Neutrophil elastase (NE); at 0.1 μM regardless of day): ~ 85%; NE inhibition at low dose, fluctuations depending on the day (range) (Neutrophil elastase (NE); low dose, range over days): 42-78%; reduction in PR3 activity (proteinase 3 (PR3)): concentration-dependent reduction in PR3 activity; max inhibition of PR3 activity observed (proteinase 3 (PR3); at 1 μM on D5 and D7): ~ 95%; PR3 inhibition at low dose, fluctuations depending on the day (range) (proteinase 3 (PR3); low dose, range over days): 36%-72%; reduction in CatG activity (cathepsin G (CatG)): concentration-dependent reduction in CatG activity; max inhibition of CatG activity observed (cathepsin G (CatG); at 1 μM): ~ 95%; CatG inhibition at low dose, fluctuations depending on the day (range) (cathepsin G (CatG); low dose, range over days): 27-78%
COC1CNC[C@@H](C(=O)N[C@H](C#N)Cc2ccc(-c3ccc4oc(=O)n(C)c4c3)cc2)OC1 (mixture of isomers) [INSM-202, (6-rac)-(2S)—N-[(1S)-1-cyano-2-[4-(3-methyl-2-oxo-2,3-dihydro-1,3-benzoxazol-5-yl)phenyl]ethyl]-6-methoxy-1,4-oxazepane-2-carboxamide] | 0.7 ± 0.2 nM | 86% | 80% | 89% | 78% | 90% | 88% | 94% | 95% | 93% | 94% | 96% | 98% | 93% | 94% | 99% | 100% | 100% | 100% | ~ 85% | max inhibition of PR3 activity observed (proteinase 3 (PR3); regardless of day): ~ 95%; max inhibition of CatG activity observed (cathepsin G (CatG)): ~ 95%
COC1CNC[C@@H](C(=O)N[C@H](C#N)Cc2ccc(-c3ccc4oc(=O)n(C)c4c3)cc2)OC1 (single isomer, unassigned) [INSM-203, (2S,6R*)—N-[(1S)-1-cyano-2-[4-(3-methyl-2-oxo-2,3-dihydro-1,3-benzoxazol-5-yl)phenyl]ethyl]-6-methoxy-1,4-oxazepane-2-carboxamide] | 0.3 ± 0.1 nM | 89% | 82% | 84% | 91% | 84% | 86% | 93% | 93% | 85% | 94% | 94% | 84% | 93% | 97% | 94% | 99% | 100% | 96% | ~ 85% | concentration by which PR3 inhibition plateau is reached (proteinase 3 (PR3)): ≤ 0.02 µM; max inhibition of PR3 activity observed (proteinase 3 (PR3); regardless of day): ~ 90%; max inhibition of CatG activity observed (cathepsin G (CatG)): ~ 95%
